Laboratory results: PubChem BioAssay (NCI)
Where “and” joins values, the source holds several entries; their conditions need not be identical. Identical values can stand only once.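 Five compound concentrations were applied to cells in 96-well plates for 48 hours; endpoints were derived by simple linear interpolation of the resulting dose-response curve. Abbreviation: GI50, concentration required for 50% inhibition of growth. The concentration for full growth arrest is given as TGI.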

Assays:
Test in all cases: growth of human tumour cells (NCI), 48 h
NCI/ADR-RES ovarian = test system: NCI/ADR-RES ovarian
UACC-62 melanoma = test system: UACC-62 melanoma
TK-10 renal = test system: TK-10 renal
BT-549 breast = test system: BT-549 breast
SR leukemia = test system: SR leukemia
PC-3 prostate = test system: PC-3 prostate
CAKI-1 renal = test system: CAKI-1 renal
HCT-116 colon = test system: HCT-116 colon
OVCAR-4 ovarian = test system: OVCAR-4 ovarian
SK-MEL-2 melanoma = test system: SK-MEL-2 melanoma

| Structure (SMILES) | TGI (NCI/ADR-RES ovarian) | TGI (UACC-62 melanoma) | TGI (TK-10 renal) | TGI (BT-549 breast) | TGI (SR leukemia) | TGI (PC-3 prostate) | GI50 (CAKI-1 renal) | TGI (CAKI-1 renal) | GI50 (HCT-116 colon) | TGI (HCT-116 colon) | GI50 (NCI/ADR-RES ovarian) | GI50 (OVCAR-4 ovarian) | TGI (OVCAR-4 ovarian) | GI50 (TK-10 renal) | GI50 (SK-MEL-2 melanoma) | TGI (SK-MEL-2 melanoma) | GI50 (BT-549 breast) | GI50 (SR leukemia) | GI50 (PC-3 prostate) | GI50 (UACC-62 melanoma) |
| --- | --- | --- | --- | --- | --- | --- | --- | --- | --- | --- | --- | --- | --- | --- | --- | --- | --- | --- | --- | --- |
| COc1cc(COC(=O)N(CC(=O)O)c2ccccc2)c([N+](=O)[O-])cc1OC | > 100 µM | > 100 µM | > 100 µM | > 100 µM | > 100 µM | > 100 µM | – | – | – | – | – | – | – | – | – | – | – | – | – | – |
| COc1ccc(Nc2c3ccccc3nc3ccccc23)cc1 | 15.5 µM | – | 13.7 µM | 23.6 µM | 4.01 µM | – | 1.21 µM | 10.4 µM | 0.576 µM | 11.5 µM | 0.545 µM | 2.06 µM | 15 µM | 2.78 µM | 1.29 µM | 11.3 µM | 5.99 µM | 0.482 µM | – | – |
| COc1ccc2c(c1)n([O-])c1ccccc1[n+]2=O | > 100 µM and 97.9 µM | > 100 µM and 65 µM | > 100 µM | – | 59.6 µM and 12.2 µM | > 100 µM and 73.1 µM | 25.3 µM and 8 µM | > 100 µM and 27 µM | – | > 100 µM | – | – | 77.8 µM | – | – | 74.7 µM and 54.5 µM | – | 7.56 µM and 2.42 µM | 91.9 µM and 28.3 µM | – |
| N#C/C(=C\NC(=S)c1ccncc1)c1nc2ccccc2s1 | > 100 µM | > 100 µM | > 100 µM | > 100 µM | > 100 µM | > 100 µM | – | > 100 µM | – | > 100 µM | – | – | > 100 µM | – | – | > 100 µM | – | – | – | – |
| COc1cc(/C=C/C(=O)c2ccc(NC(=O)CN3CCN(c4cc5c(cc4F)c(=O)c(C(=O)O)cn5C4CC4)CC3)cc2)cc(OC)c1OC | > 100 µM | 3.39 µM | 12.9 µM | 1.44 µM | > 100 µM | > 100 µM | 1.47 µM | > 32.5 µM | 0.324 µM | 1.31 µM | > 75.9 µM | 1.38 µM | 22.3 µM | 1.8 µM | 2.21 µM | 5.78 µM | 0.405 µM | 0.245 µM | 0.782 µM | 0.887 µM |
| C=C1CC/C=C(\C)C(=O)C[C@@H]2[C@@H]1CC2(C)C | 46.6 µM | 24.2 µM | 17.1 µM | 11.6 µM | – | 26.1 µM | – | 3.01 µM | – | 7.06 µM | – | – | 6.48 µM | – | – | 43.8 µM | – | – | – | – |
| O=C(/C=C/c1cc([N+](=O)[O-])ccc1Cl)c1ccccc1 | 91.7 µM | 32.3 µM | > 100 µM | 27.8 µM | > 100 µM | 82.9 µM | 5.32 µM | 31.3 µM | 1.59 µM | 2.93 µM | 24.4 µM | 33.9 µM | > 100 µM | 38.2 µM | 24.6 µM | 72.3 µM | 14.5 µM | 3.54 µM | 24.5 µM | 13.8 µM |
| O=C1c2ccccc2C(=O)c2c1ccc(C1C(=O)c3ccccc3C1=O)c2-c1c(C2C(=O)c3ccccc3C2=O)ccc2c1C(=O)c1ccccc1C2=O | > 100 µM | > 100 µM | > 100 µM | > 100 µM | – | > 100 µM | – | > 100 µM | – | > 100 µM | – | – | > 100 µM | – | – | > 100 µM | – | – | – | – |
